Results on 13 molecules are retold here after doi:10.1101/2025.01.28.635346v1 (bioRxiv, 2025).

Bridge positions count the residues as written; N and C are the ends. Peptide text beside a SMILES is read from it.

In assay [1] the target is T1, integrin αvβ6 (Homo sapiens, UniProt P06756+P18564). Description: ELISA competition assay, integrin αvβ6 binding to LAP.
Assay [2] addresses T2, integrin αvβ8 (Homo sapiens, UniProt P06756+P26012). Description: ELISA competition assay, integrin αvβ8 binding to LAP.
Assay [3] deals with T3, integrin αvβ3 (Homo sapiens, UniProt P05106+P06756). The assay can be described thus: ELISA competition assay, integrin αvβ3. Format: binding.
Assay [4] concerns the target T1, integrin αvβ6. The assay can be described thus: AlphaLISA competition assay vs LAP, biotinylated αvβ6. Format: binding.
Assay [5] has as its target T2, integrin αvβ8. The assay can be described thus: AlphaLISA competition assay vs LAP, biotinylated αvβ8. Type of assay: binding.
Assay [6] has as its target T3, integrin αvβ3. Description: AlphaLISA competition assay vs LAP, biotinylated αvβ3. Format: binding.
[7] abbreviates: αvβ6 IC50, ELISA competition vs LAP, mean, n ≥ 3.

As for `CC[C@H](C)[C@H](NC(=O)[C@@H]1CCCN1C(=O)[C@H](CC(C)C)NC(=O)[C@H](CC(=O)O)NC(=O)CNC(=O)[C@H](CCCNC(=N)N)NC(=O)[C@H](Cc1ccccc1)NC(=O)[C@H](Cc1ccc(O)cc1)NC(=O)[C@@H]1CCC(=O)NCC(=O)NCC(=O)N[C@@H](C)C(=O)NCC(=O)N[C@@H](Cc2c[nH]cn2)C(=O)N[C@@H](C(C)C)C(=O)N2CCC[C@H]2C(=O)N1)C(=O)N[C@@H](CO)C(=O)N[C@@H](Cc1ccccc1)C(=O)N[C@@H](Cc1ccc(O)cc1)C(=O)NCC(=O)O` [lassotide 13] (GGAGHVPEYFRGDLPISFYG-OH; lactam N-8; C-terminus assumed), the results for the IC50 in assay [1] (setting [7]), in assay [2] and in assay [3] were 0.624 µM, 0.221 µM and 0.02 µM, respectively.
With `CC[C@H](C)[C@@H]1NC(=O)[C@H]([C@@H](C)CC)NC(=O)[C@@H]2CCCN2C(=O)CNC(=O)[C@H](CC(=O)O)NC(=O)[C@H](CO)NC(=O)CNC(=O)CC[C@@H](C(=O)N[C@@H](Cc2ccccc2)C(=O)N[C@@H](Cc2ccccc2)C(=O)N[C@@H](CC(N)=O)C(=O)N2CCC[C@H]2C(=O)N[C@@H](CC(N)=O)C(=O)NCC(=O)N[C@H](C(=O)N[C@@H](CCSC)C(=O)N[C@@H](Cc2c[nH]cn2)C(=O)N[C@@H](Cc2ccc(O)cc2)C(=O)NCC(=O)O)C(C)C)NC1=O` [lassotide 15, klebsidin, reference compound] (GSDGPIIEFFNPNGVMHYG-OH; lactam N-8; C-terminus assumed), the IC50 in assay [1], in assay [2] and in assay [3] was over 10 µM in each case.
In the case of `CC[C@H](C)[C@@H]1NC(=O)[C@H]([C@@H](C)CC)NC(=O)[C@@H]2CCCN2C(=O)CNC(=O)[C@H](CC(=O)O)NC(=O)[C@H](CO)NC(=O)CNC(=O)CC[C@@H](C(=O)N[C@@H](Cc2ccccc2)C(=O)N[C@@H](CCCNC(=N)N)C(=O)NCC(=O)N[C@@H](CC(=O)O)C(=O)N[C@@H](CC(C)C)C(=O)NCC(=O)N[C@H](C(=O)N[C@@H](CCSC)C(=O)N[C@@H](Cc2c[nH]cn2)C(=O)N[C@@H](Cc2ccc(O)cc2)C(=O)NCC(=O)O)C(C)C)NC1=O` [lassotide 16] (GSDGPIIEFRGDLGVMHYG-OH; lactam N-8; C-terminus assumed), the values for the IC50 in assay [1] (setting [7]), in assay [2] and in assay [3] were 0.03 µM, 0.214 µM and 1.06 µM, respectively.
For the molecule `CC[C@H](C)[C@H](NC(=O)[C@H](CC(C)C)NC(=O)[C@H](CC(=O)O)NC(=O)CNC(=O)[C@H](CCCNC(=N)N)NC(=O)[C@@H](NC(=O)[C@H](Cc1ccccc1)NC(=O)[C@H](Cc1ccc(O)cc1)NC(=O)[C@@H]1CCC(=O)NCC(=O)NCC(=O)N[C@@H](Cc2ccccc2)C(=O)NCC(=O)N[C@@H](Cc2c[nH]cn2)C(=O)N[C@@H](C(C)C)C(=O)N2CCC[C@H]2C(=O)N1)C(C)C)C(=O)N[C@@H](CO)C(=O)N[C@@H](Cc1ccccc1)C(=O)N[C@@H](Cc1ccc(O)cc1)C(=O)NCC(=O)O` [lassotide 33] (GGFGHVPEYFVRGDLISFYG-OH; lactam N-8; C-terminus assumed), the figures for the IC50 in assay [4] and in assay [5] were 0.347 µM and 0.125 µM, respectively.
On to `CC[C@H](C)[C@@H]1NC(=O)[C@H](CO)NC(=O)CC[C@@H](C(=O)N[C@@H](CO)C(=O)N[C@@H](CCSC)C(=O)N[C@@H](CO)C(=O)N[C@@H](CO)C(=O)N[C@@H](CCC(N)=O)C(=O)N[C@H](C(=O)N[C@@H](Cc2ccc(O)cc2)C(=O)N[C@@H](Cc2c[nH]c3ccccc23)C(=O)N2CCC[C@H]2C(=O)O)[C@@H](C)O)NC(=O)[C@H](CCCNC(=N)N)NC(=O)[C@H](CC(C)C)NC(=O)CNC(=O)[C@H](CO)NC(=O)[C@H](CC(=O)O)NC(=O)CNC1=O` [lassotide 17, caulonodin V, reference compound] (SIGDSGLRESMSSQTYWP-OH; lactam N-9; C-terminus assumed), for which the IC50 in assay [1] (setting [7]), in assay [2] and in assay [3] was over 10 µM each time.
For `CC[C@H](C)[C@H](NC(=O)[C@@H]1CCCN1C(=O)[C@H](CC(C)C)NC(=O)[C@H](CC(=O)O)NC(=O)CNC(=O)[C@H](CCCNC(=N)N)NC(=O)[C@@H](NC(=O)[C@H](Cc1ccc(O)cc1)NC(=O)[C@@H]1CCC(=O)NCC(=O)NCC(=O)N[C@@H](C)C(=O)NCC(=O)N[C@@H](Cc2c[nH]cn2)C(=O)N[C@@H](C(C)C)C(=O)N2CCC[C@H]2C(=O)N1)C(C)C)C(=O)N[C@@H](CO)C(=O)N[C@@H](Cc1ccccc1)C(=O)N[C@@H](Cc1ccc(O)cc1)C(=O)NCC(=O)O` [lassotide 12] (GGAGHVPEYVRGDLPISFYG-OH; lactam N-8; C-terminus assumed), the IC50 in assay [1] (setting [7]) was 0.177 µM; in assay [2], 0.475 µM; in assay [3] it was 0.001 µM.
Turning to `CC(C)C[C@H](NC(=O)[C@H](CC(=O)O)NC(=O)CNC(=O)[C@H](CCCNC(=N)N)NC(=O)[C@@H](NC(=O)[C@H](Cc1ccccc1)NC(=O)[C@H](Cc1ccc(O)cc1)NC(=O)[C@@H]1CCC(=O)NCC(=O)NCC(=O)N[C@@H](C)C(=O)NCC(=O)N[C@@H](Cc2c[nH]cn2)C(=O)N[C@@H](C(C)C)C(=O)N2CCC[C@H]2C(=O)N1)C(C)C)C(=O)N[C@@H](Cc1c[nH]c2ccccc12)C(=O)N[C@@H](CO)C(=O)N[C@@H](Cc1ccccc1)C(=O)N[C@@H](Cc1ccc(O)cc1)C(=O)NCC(=O)O` [lassotide 26] (GGAGHVPEYFVRGDLWSFYG-OH; lactam N-8; C-terminus assumed), the IC50 in assay [4] is 0.024 µM; in assay [5], 0.085 µM.
In the case of `CC(C)C[C@H](NC(=O)[C@H](CC(=O)O)NC(=O)CNC(=O)[C@H](CCCNC(=N)N)NC(=O)[C@@H](NC(=O)[C@H](Cc1ccccc1)NC(=O)[C@H](Cc1ccc(O)cc1)NC(=O)[C@@H]1CCC(=O)NCC(=O)NCC(=O)N[C@@H](C)C(=O)NCC(=O)N[C@@H](Cc2c[nH]cn2)C(=O)N[C@@H](C(C)C)C(=O)N2CCC[C@H]2C(=O)N1)C(C)C)C(=O)N[C@@H](C)C(=O)N[C@@H](CO)C(=O)N[C@@H](Cc1ccccc1)C(=O)N[C@@H](Cc1ccc(O)cc1)C(=O)NCC(=O)O` [lassotide 23] (GGAGHVPEYFVRGDLASFYG-OH; lactam N-8; C-terminus assumed), the values for the IC50 in assay [4] and in assay [5] were 0.027 µM and 0.051 µM, respectively.
The like results for `CC[C@H](C)[C@H](NC(=O)[C@@H]1CCCN1C(=O)[C@H](C)NC(=O)[C@H](CC(=O)O)NC(=O)CNC(=O)[C@H](CCCNC(=N)N)NC(=O)[C@@H](NC(=O)[C@H](Cc1ccccc1)NC(=O)[C@H](Cc1ccc(O)cc1)NC(=O)[C@@H]1CCC(=O)NCC(=O)NCC(=O)N[C@@H](C)C(=O)NCC(=O)N[C@@H](Cc2c[nH]cn2)C(=O)N[C@@H](C(C)C)C(=O)N2CCC[C@H]2C(=O)N1)C(C)C)C(=O)N[C@@H](CO)C(=O)N[C@@H](Cc1ccccc1)C(=O)N[C@@H](Cc1ccc(O)cc1)C(=O)NCC(=O)O` [lassotide 4] (GGAGHVPEYFVRGDAPISFYG-OH; lactam N-8; C-terminus assumed) were, in that order, 0.436 µM and 0.109 µM.
Turning to `CC[C@H](C)[C@H](NC(=O)[C@H](CC(C)C)NC(=O)[C@H](CC(=O)O)NC(=O)CNC(=O)[C@H](CCCNC(=N)N)NC(=O)[C@H](CCCNC(=N)N)NC(=O)[C@H](Cc1ccccc1)NC(=O)[C@H](Cc1ccc(O)cc1)NC(=O)[C@@H]1CCC(=O)NCC(=O)NCC(=O)N[C@@H](C)C(=O)NCC(=O)N[C@@H](Cc2c[nH]cn2)C(=O)N[C@@H](C(C)C)C(=O)N2CCC[C@H]2C(=O)N1)C(=O)N[C@@H](CO)C(=O)N[C@@H](Cc1ccccc1)C(=O)N[C@@H](Cc1ccc(O)cc1)C(=O)NCC(=O)O` [lassotide 20] (GGAGHVPEYFRRGDLISFYG-OH; lactam N-8; C-terminus assumed), the IC50 in assay [4] is 0.017 µM; in assay [5] it was 0.038 µM.
In the case of `CC[C@H](C)[C@H](NC(=O)[C@@H]1CCCN1C(=O)[C@H](CC(C)C)NC(=O)[C@H](CC(=O)O)NC(=O)CNC(=O)[C@H](CCCNC(=N)N)NC(=O)[C@@H](NC(=O)[C@H](Cc1ccccc1)NC(=O)[C@H](Cc1ccc(O)cc1)NC(=O)[C@@H]1CCC(=O)NCC(=O)NCC(=O)N[C@@H](C)C(=O)NCC(=O)N[C@@H](Cc2c[nH]cn2)C(=O)N[C@@H](C(C)C)C(=O)N2CCC[C@H]2C(=O)N1)C(C)C)C(=O)N[C@@H](CO)C(=O)N[C@@H](Cc1ccccc1)C(=O)N[C@@H](Cc1ccc(O)cc1)C(=O)NCC(=O)O` [lassotide 2] (GGAGHVPEYFVRGDLPISFYG-OH; lactam N-8; C-terminus assumed), the IC50 in assay [4] came to 0.263 µM; in assay [6], 0.001 µM.
For `CC[C@H](C)[C@H](NC(=O)[C@H](CC(C)C)NC(=O)[C@H](CC(=O)O)NC(=O)CNC(=O)[C@H](CCCNC(=N)N)NC(=O)[C@H](Cc1ccc(O)cc1)NC(=O)[C@H](Cc1ccccc1)NC(=O)[C@H](Cc1ccc(O)cc1)NC(=O)[C@@H]1CCC(=O)NCC(=O)NCC(=O)N[C@@H](C)C(=O)NCC(=O)N[C@@H](Cc2c[nH]cn2)C(=O)N[C@@H](C(C)C)C(=O)N2CCC[C@H]2C(=O)N1)C(=O)N[C@@H](CO)C(=O)N[C@@H](Cc1ccccc1)C(=O)N[C@@H](Cc1ccc(O)cc1)C(=O)NCC(=O)O` [lassotide 22] (GGAGHVPEYFYRGDLISFYG-OH; lactam N-8; C-terminus assumed), the IC50 in assay [4] stood at 0.198 µM; in assay [5], 0.078 µM.
For `CC[C@H](C)[C@H](NC(=O)[C@@H]1CCCN1C(=O)[C@H](Cc1c[nH]cn1)NC(=O)[C@H](CC(=O)O)NC(=O)CNC(=O)[C@H](CCCNC(=N)N)NC(=O)[C@@H](NC(=O)[C@H](Cc1ccccc1)NC(=O)[C@H](Cc1ccc(O)cc1)NC(=O)[C@@H]1CCC(=O)NCC(=O)NCC(=O)N[C@@H](C)C(=O)NCC(=O)N[C@@H](Cc2c[nH]cn2)C(=O)N[C@@H](C(C)C)C(=O)N2CCC[C@H]2C(=O)N1)C(C)C)C(=O)N[C@@H](CO)C(=O)N[C@@H](Cc1ccccc1)C(=O)N[C@@H](Cc1ccc(O)cc1)C(=O)NCC(=O)O` [lassotide 6] (GGAGHVPEYFVRGDHPISFYG-OH; lactam N-8; C-terminus assumed), the IC50 in assay [4] worked out at 0.457 µM; in assay [5] it was 0.167 µM.
